Reference: patent publication US8207313B2, “Natural products from Vinca” (William Marsh Rice University, priority 2007, dated 2012)

Legend:
Type in all cases: cell-based, Human
MMP-9 = MMP-9 expression in LPS-stimulated THP-1 cells (gelatin zymography); conditions: THP-1 cells pre-treated 2 h with 5, 10 and 20 μg/ml compound, then 1 μg/ml LPS, supernatant at 24 h; MMP-2 internal control
Protocol: Several of the compounds were tested for pharmaceutical activity against two well known inflammatory mediators—MMP-9 and TNF-α. Compounds (1), (2), (3), and (4), were tested. An inflammatory reaction is stimulated with LPS and MMP-2 is used as an internal gene expression control.
The inhibitory effect of flavonoid glycoside compounds on MMP-9 expression (FIG. 1) was assayed in THP-1 cells stimulated with LPS. In panels A, C, E and G; THP-1 cells were pre-treated with 5, 10 and 20 μg/ml of the compound specified for 2 h. After pre-treatment with the relevant compound, the cells were then stimulated with 1 μg/ml LPS. The culture supernatants were collected 24 h after activation and subjected to substrate gel electrophoresis (gelatin zymography) and staining with Coomassie brilliant blue.

THP-1 cells = test: THP-1 cell viability, MTS assay; conditions: THP-1 cells treated with the compound as in the MMP-9 test
Protocol: In panels B, D, F and H; THP-1 cells were treated with the compound in A, C, E and G, and cell viability was tested with MTS assay.

TNF-α = TNF-α in culture supernatant of LPS-activated THP-1 cells (sandwich ELISA); conditions: THP-1 cells pre-treated 2 h with compound, 1 μg/ml LPS, supernatant at 24 h, ELISA in duplicate
Protocol: The blocking effect of compounds on cytokines expression (FIG. 2) induced by LPS in monocytic cell lines was then assessed. THP-1 cells were pre-treated with compounds for 2 h and activated with 1 μg/ml LPS. Culture supernatants were collected in 24 h and the TNF-α concentrations were measured using sandwich ELISA. Measurements were done in duplicate. […] Therefore the compounds work to suppress inflammatory response and are potent anti-inflammatory compounds.

Compound | inhibition of MMP-9 expression (MMP-9) | cell viability (THP-1 cells) | TNF-α production (TNF-α)
C/C=C(\C)[C@@H](CCC(C)CCCC(C)CCCC(C)C)OC1C(CO)OC(Oc2cc(O)c3c(=O)c(O)c(-c4ccc(OC)c(OC)c4)oc3c2)C(O)C1O (stereo partly drawn) [Compound (1), 3,5,7-trihydroxy-3′,4′-dimethoxyflavone-7β-D-glucopyranosyl(4″-13′″)2′″,6′″,10′″,14′″-tetramethyl hexadec-14-ene] | inhibits MMP-9 expression in a dose dependant manner | no negative impact on cell viability | inhibited
CCC(C)C(CCC(C)CCCC(C)CCCC(C)C)OC1(CO)COC(COc2c(-c3ccc(OC)cc3)oc3cc(O)cc(O)c3c2=O)C(O)C1O [Compound (2), 3,5,7-trihydroxy-4′-methoxyflavone-3β-D-glucopyranosyl (4″-13′″)-2′″,6′″,10′″,14′″-tetramethyl hexadecane] | inhibits MMP-9 expression in a dose dependant manner | no negative impact on cell viability | inhibited
C=C(CCC=C(C)C)CC/C=C(\C)CC(=O)OCC1OC(Oc2ccc3c(c2)OC(c2ccc(OC)c(OC)c2)CC3=O)C(O)C(O)C1O (stereo not drawn) [Compound (3)] | inhibits MMP-9 expression in a dose dependant manner | no negative impact on cell viability | inhibited
